Here are results for 24 compounds from patent US20250250232A1, “AZETIDINE DERIVATIVES AND USE THEREOF AS DIPEPTIDYL PEPTIDASE 1 INHIBITORS” (CHIESI FARMACEUTICI S.P.A., priority 2022, published 2025).

The structures appear in SMILES notation.

T1 sequence (P53634 231-394): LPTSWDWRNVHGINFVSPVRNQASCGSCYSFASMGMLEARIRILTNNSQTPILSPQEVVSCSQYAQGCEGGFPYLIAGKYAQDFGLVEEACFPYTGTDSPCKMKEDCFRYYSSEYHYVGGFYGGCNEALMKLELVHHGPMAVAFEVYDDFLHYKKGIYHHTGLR
T1 sequence (P53634 25-134): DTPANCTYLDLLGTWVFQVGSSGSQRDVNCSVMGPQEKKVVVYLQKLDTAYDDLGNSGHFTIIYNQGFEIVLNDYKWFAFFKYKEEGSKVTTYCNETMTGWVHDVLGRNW
T1 sequence (P53634 395-463): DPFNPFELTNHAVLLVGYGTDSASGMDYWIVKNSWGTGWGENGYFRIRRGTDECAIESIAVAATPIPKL

One assay addresses T1, human DPP1 enzyme (Homo sapiens (Human), UniProt P53634). The assay is described as follows: Activity on human recombinant DPP1 isolated enzyme assay (H-Gly-Arg-AMC cleavage, fluorescence). The assay is classed as biochemical. The following applies: 0.35 nM human DPP1, 300 μM H-Gly-Arg-AMC, 30 min pre-incubation at 25° C., pH 5.0. Here is the method: Human DPP1 enzyme activity was determined by measuring release of the fluorophore aminomethyl coumarin (AMC) following enzymatic cleavage of the dipeptide substrate H-Gly-Arg-AMC. Assays were performed in black 384 well plates in 25 mM piperazine buffer, pH 5.0, containing 50 mM NaCl, 0.01% (v/v) Triton X100, 5 mM DTT with 0.35 nM human DPP1 enzyme, 300 μM H-Gly-Arg-AMC substrate (˜Km concentration) and test compounds at 0.51-10000 nM concentration range. Human DPP1 was pre-incubated with test compounds for 30 minutes at 25° C. prior to substrate incubation for a further 40 minutes at 25° C. Enzyme activity was determined by measuring fluorescence of the AMC product at excitation and emission wavelengths of 380 nm and 460 nm using a BMG LABTECH PHERA star plate reader. Test compound potencies are reported in Table 15 as pIC50 values generated from 4-parameter sigmoidal curve fitting of the measured concentration-inhibition responses.
Take `COC1(C(=O)N[C@H](C#N)Cc2ccc(-c3ccc(C#N)cc3)cc2)CN(C)C1` [Example 24, (S)-N-(1-cyano-2-(4′-cyano-[1,1′-biphenyl]-4-yl)ethyl)-3-methoxy-1-methylazetidine-3-carboxamide]: the “h DPP1 pIC50” value is given as “++++ (h DPP1 pIC50 higher than 8)”. With `COC1(C(=O)N[C@H](C#N)Cc2ccc(-c3ccc4oc(=O)n(C)c4c3)cc2F)CNC1` [Example 36, (S)-N-(1-cyano-2-(2-fluoro-4-(3-methyl-2-oxo-2,3-dihydrobenzo[d]oxazol-5-yl)phenyl)ethyl)-3-methoxyazetidine-3-carboxamide], the “h DPP1 pIC50” value is reported as “++++ (h DPP1 pIC50 higher than 8)”. In the case of `COC1(C(=O)N[C@H](C#N)Cc2ccc(-c3ccc4oc(=O)n(C)c4c3)cc2F)CN(C)C1` [Example 37, (S)-N-(1-cyano-2-(2-fluoro-4-(3-methyl-2-oxo-2,3-dihydrobenzo[d]oxazol-5-yl)phenyl)ethyl)-3-methoxy-1-methylazetidine-3-carboxamide], the “h DPP1 pIC50” value was “++++ (h DPP1 pIC50 higher than 8)”. On to `COC1(C(=O)N[C@H](C#N)Cc2ccc(-c3ccc(C#N)cc3)cc2F)CN(C)C1` [Example 41, (S)-N-(1-cyano-2-(4′-cyano-3-fluoro-[1,1′-biphenyl]-4-yl)ethyl)-3-methoxy-1-methylazetidine-3-carboxamide], for which the “h DPP1 pIC50” value is on record as “++++ (h DPP1 pIC50 higher than 8)”. Take `COC1(C(=O)N[C@H](C#N)Cc2ccc(-c3ccc4c(c3)C3(CCN(C5COC5)CC3)OC4)cc2F)CN(C)C1` [Example 47, (S)-N-(1-cyano-2-(2-fluoro-4-(1′-(oxetan-3-yl)-3H-spiro[isobenzofuran-1,4′-piperidin]-6-yl)phenyl)ethyl)-3-methoxy-1-methylazetidine-3-carboxamide]: the “h DPP1 pIC50” value is reported as “++++ (h DPP1 pIC50 higher than 8)”.

For `CN1C(=O)Cc2ccc(-c3ccc(C[C@@H](C#N)NC(=O)C4(CF)CNC4)c(F)c3)cc21` [Example 48, (S)-N-(1-cyano-2-(2-fluoro-4-(1-methyl-2-oxoindolin-6-yl)phenyl)ethyl)-3-(fluoromethyl)azetidine-3-carboxamide], the “h DPP1 pIC50” value is on record as “++++ (h DPP1 pIC50 higher than 8)”. Turning to `COC1(C(=O)N[C@H](C#N)Cc2ccc(-c3ccc4c(c3)N(C)C(=O)C4)cc2F)CNC1` [Example 49, (S)-N-(1-cyano-2-(2-fluoro-4-(1-methyl-2-oxoindolin-6-yl)phenyl)ethyl)-3-methoxyazetidine-3-carboxamide], the “h DPP1 pIC50” value is given as “++++ (h DPP1 pIC50 higher than 8)”. In the case of `COC1(C(=O)N[C@H](C#N)Cc2ccc(-c3ccc4c(c3)N(C)C(=O)C4)cc2F)CN(C)C1` [Example 50, (S)-N-(1-cyano-2-(2-fluoro-4-(1-methyl-2-oxoindolin-6-yl)phenyl)ethyl)-3-methoxy-1-methylazetidine-3-carboxamide], the “h DPP1 pIC50” value is “++++ (h DPP1 pIC50 higher than 8)”.

The assay is the same for the next values; noted with them: 0.35 nM human DPP1, 300 μM H-Gly-Arg-AMC, 30 min pre-incubation at 25° C., pH 5.0; read-out: h DPP1 pIC50 (converted).
Take `N#Cc1ccc(-c2ccc(C[C@@H](C#N)NC(=O)C3CN(C4COC4)C3)cc2)cc1` [Example 23, (S)-N-(1-cyano-2-(4′-cyano-[1,1′-biphenyl]-4-yl)ethyl)-1-(oxetan-3-yl)azetidine-3-carboxamide]: the IC50 is 1000 to 10000 nM.

As for `CC(C)OC1(C(=O)N[C@H](C#N)Cc2ccc(-c3ccc(C#N)cc3)cc2)CNC1` [Example 26, (S)-N-(1-cyano-2-(4′-cyano-[1,1′-biphenyl]-4-yl)ethyl)-3-isopropoxyazetidine-3-carboxamide], the IC50 is 1000 to 10000 nM. On to `COC1(C(=O)N[C@H](C#N)Cc2ccc(-c3ccc(C#N)cc3)cc2)CN(C2COC2)C1` [Example 29, (S)-N-(1-cyano-2-(4′-cyano-[1,1′-biphenyl]-4-yl)ethyl)-3-methoxy-1-(oxetan-3-yl)azetidine-3-carboxamide], for which the IC50 was 100 to 1000 nM. For `COC1(C(=O)N[C@H](C#N)Cc2ccc(-c3ccc(C#N)cc3)cc2)CN(C(C)C)C1` [Example 30, (S)-N-(1-cyano-2-(4′-cyano-[1,1′-biphenyl]-4-yl)ethyl)-1-isopropyl-3-methoxyazetidine-3-carboxamide], the IC50 was 1000 to 10000 nM. The same measure, in the same setting: the same measure for `COC1(C(=O)N[C@H](C#N)Cc2ccc(-c3ccc(C#N)cc3)cc2)CNC1C` (stereo partly drawn) [Example 31, N-((S)-1-cyano-2-(4′-cyano-[1,1′-biphenyl]-4-yl)ethyl)-3-methoxy-2-methylazetidine-3-carboxamide]: 100 to 1000 nM.

Take `CN1CC(C(=O)N[C@H](C#N)Cc2ccc(-c3ccc(C#N)cc3)cc2)(C(F)F)C1` [Example 35, (S)-N-(1-cyano-2-(4′-cyano-[1,1′-biphenyl]-4-yl)ethyl)-3-(difluoromethyl)-1-methylazetidine-3-carboxamide]: the IC50 was 100 to 1000 nM.

With `CN1CC(O)(C(=O)N[C@H](C#N)Cc2ccc(-c3ccc(C#N)cc3)cc2)C1` [Example 38, (S)-N-(1-cyano-2-(4′-cyano-[1,1′-biphenyl]-4-yl)ethyl)-3-hydroxy-1-methylazetidine-3-carboxamide], the IC50 was 10 to 100 nM. The same measure, in the same setting: under `CN1CC(C(=O)N[C@H](C#N)Cc2ccc(-c3ccc4c(c3)C3(CCN(C5COC5)CC3)OC4)cc2F)(C(F)F)C1` [Example 39, (S)-N-(1-cyano-2-(2-fluoro-4-(1′-(oxetan-3-yl)-3H-spiro[isobenzofuran-1,4′-piperidin]-6-yl)phenyl)ethyl)-3-(difluoromethyl)-1-methylazetidine-3-carboxamide] stands 10 to 100 nM; under `CN1CC(C(=O)N[C@H](C#N)Cc2ccc(-c3ccc(C#N)cc3)cc2F)(C(F)F)C1` [Example 40, (S)-N-(1-cyano-2-(4′-cyano-3-fluoro-[1,1′-biphenyl]-4-yl)ethyl)-3-(difluoromethyl)-1-methylazetidine-3-carboxamide], 10 to 100 nM; under `COC1(C(=O)NC(C#N)Cc2ncc(-c3ccc(C#N)cc3)cc2F)CNC1` (stereo not drawn) [Example 42, N-(1-cyano-2-(5-(4-cyanophenyl)-3-fluoropyridin-2-yl)ethyl)-3-methoxyazetidine-3-carboxamide], 100 to 1000 nM. On the same count and under the same terms, under `CCCN1CC(OC)(C(=O)N[C@H](C#N)Cc2ccc(-c3ccc(C#N)cc3)cc2)C1` [Example 46, (S)-N-(1-cyano-2-(4′-cyano-[1,1′-biphenyl]-4-yl)ethyl)-3-methoxy-1-propylazetidine-3-carboxamide] stands 1000 to 10000 nM; under `COC1(C(=O)N[C@H](C#N)Cc2ccc(-c3ccc(C#N)cc3)cc2)CN(CC(C)C)C1` [Example 51, (S)-N-(1-cyano-2-(4′-cyano-[1,1′-biphenyl]-4-yl)ethyl)-1-isobutyl-3-methoxyazetidine-3-carboxamide], 1000 to 10000 nM. In the case of `CCN1CC(OC)(C(=O)N[C@H](C#N)Cc2ccc(-c3ccc(C#N)cc3)cc2)C1` [Example 52, (S)-N-(1-cyano-2-(4′-cyano-[1,1′-biphenyl]-4-yl)ethyl)-1-ethyl-3-methoxyazetidine-3-carboxamide], the IC50 is 100 to 1000 nM.

A further assay addresses T1, human DPP1 enzyme.
Assay: not given
Conditions: values from K Doyle, J. Med. Chem. 2016, Table 3; cited from earlier work.
With `Cn1c(=O)oc2ccc(-c3ccc(C[C@@H](C#N)NC(=O)C4(C(F)F)CNC4)cc3)cc21` [compound 14, (S)-N-(1-cyano-2-(4-(3-methyl-2-oxo-2,3-dihydrobenzo[d]oxazol-5-yl)phenyl)ethyl)-3-(difluoromethyl)azetidine-3-carboxamide], the “pIC50 in the human recombinant DPP1 isolated enzyme assay (state of the art)” value (“pIC50 … (state of the art)” below) is on record as “less than 5”.

As to `N#C[C@H](Cc1ccc(-c2ccc3c(c2)C2(CCN(C4COC4)CC2)OC3)cc1F)NC(=O)C1(C(F)F)CNC1` [compound 15, (S)-N-(1-cyano-2-(2-fluoro-4-(1′-(oxetan-3-yl)-3H-spiro[isobenzofuran-1,4′-piperidin]-6-yl)phenyl)ethyl)-3-(difluoromethyl)azetidine-3-carboxamide], the “pIC50 … (state of the art)” value is on record as “less than 5”. For `CN1C(=O)Cc2ccc(-c3ccc(C[C@@H](C#N)NC(=O)C4(C(F)F)CNC4)c(F)c3)cc21` [compound 16, (S)-N-(1-cyano-2-(2-fluoro-4-(1-methyl-2-oxoindolin-6-yl)phenyl)ethyl)-3-(difluoromethyl)azetidine-3-carboxamide], the “pIC50 … (state of the art)” value is reported as 5.9.
